Values of other authors, collected in patent US20170051350A1, “METHOD AND SYSTEM TO PREDICT RESPONSE TO TREATMENTS FOR MENTAL DISORDERS” (Pathway Genomics Corporation, priority 2013, published 2017).
Like-named read-outs stand apart in the source and are kept apart here.

Tests used:
CYP2D6 = details: cited from earlier work
genes affecting efficacy = details: cited from earlier work; for depression improvement (Category): BDNF rs61888800, full wording: Depression may improve more than average, source PMID 20435227 Suppl Table 3a
HLA genotypes = details: cited from earlier work
HTR2C = target: T1, HTR2C (Homo sapiens, UniProt P28335); details: HTR2C rs3813929 T/C, T (outcome: reduced weight gain); cited from earlier work
T1 construct: endogenous in cells; host or cells: patients (in vivo)
T1 sequence (P28335 33-458): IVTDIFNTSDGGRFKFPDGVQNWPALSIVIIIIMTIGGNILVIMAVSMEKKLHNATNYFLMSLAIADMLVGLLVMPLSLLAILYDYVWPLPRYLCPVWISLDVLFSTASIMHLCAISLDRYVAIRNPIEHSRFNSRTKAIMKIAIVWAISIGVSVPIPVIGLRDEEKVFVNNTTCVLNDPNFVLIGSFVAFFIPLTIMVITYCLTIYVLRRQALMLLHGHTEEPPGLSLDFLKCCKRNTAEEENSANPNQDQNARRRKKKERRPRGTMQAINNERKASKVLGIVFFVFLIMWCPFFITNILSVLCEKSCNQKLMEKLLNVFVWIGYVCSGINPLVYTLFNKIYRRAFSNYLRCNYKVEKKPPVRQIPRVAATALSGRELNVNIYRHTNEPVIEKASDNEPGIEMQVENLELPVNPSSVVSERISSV

[1] = system: genes affecting adverse reactions; details: source PMID 20435227 Suppl Table 3c, cited from earlier work
[2] = CYP2D6 Intermediate Metabolizer

CNCCC=C1c2ccccc2CCc2ccccc21 [Nortriptyline]
plasma concentrations (drug, or drug combined with its active metabolite) (CYP2D6; [2]): Patient's genotype is associated with increased plasma concentrations of nortriptyline at standard doses (PMID
plasma concentrations (drug, or drug combined with its active metabolite) (CYP2D6; CYP2D6 Poor Metabolizer): Patient's genotype is associated with increased plasma concentrations of nortriptyline at standard doses (PMID
plasma concentrations (drug, or drug combined with its active metabolite) (CYP2D6; CYP2D6 Ultrarapid Metabolizer): Patient's genotype is associated with decreased plasma concentrations of nortriptyline at standard doses (PMID
Escitalopram, Nortriptyline, response (Category) (genes affecting efficacy; NR3C1 rs10482633, full wording: Depression may not respond as well, source PMID 20435227 Suppl Table 3b): Depression may not respond

CNCCCN1c2ccccc2CCc2ccccc21 [Desipramine]
plasma concentrations (drug, or drug combined with its active metabolite) (CYP2D6; [2]): Patient may have increased plasma concentrations of desipramine at standard doses (PMID 9049581, PMID 3816019,
plasma concentrations (drug, or drug combined with its active metabolite) (CYP2D6; CYP2D6 Poor Metabolizer): Patient's genotype is associated with increased plasma concentrations of desipramine at standard doses (PMID
risk of adverse effects (CYP2D6; CYP2D6 Poor Metabolizer): 9049581, PMID 3816019, PMID 10895986), which may increase risk of adverse effects.
depression improvement (Category) (genes affecting efficacy): Depression may improve

CC(C)(S)[C@@H](N)C(=O)O [penicillamine]
toxicity (HLA genotypes; HLA-DR3): associated

O=C(CCCN1CCC(O)(c2ccc(Cl)cc2)CC1)c1ccc(F)cc1 [Haloperidol]
plasma concentrations (drug, or drug combined with its active metabolite) (CYP2D6; [2]): Patient may have increased plasma concentrations of haloperidol (PMID 12386646, 10519444, 10096261).
plasma concentrations of reduced haloperidol (CYP2D6; CYP2D6 Poor Metabolizer): fluphenazine, quetiapine, olanzapine or clozapine (PMID 21412232). Patient's genotype is associated with increased
risk of adverse effects (CYP2D6; CYP2D6 Poor Metabolizer): Patient has increased risk of extrapyramidal symptoms and other adverse effects. Consider reducing the dose or
risk of extrapyramidal symptoms (CYP2D6; CYP2D6 Ultrarapid metabolizer, in one study): In one study, individuals with this patient's CYP2D6 metabolizer status had a slightly increased risk of extrapyramidal

Cc1nc2n(c(=O)c1CCN1CCC(c3noc4cc(F)ccc34)CC1)CCCC2O (stereo not drawn) [Paliperidone]
risk of weight gain (HTR2C): Patient has decreased risk of weight gain if treated with atypical antipsychotics, including paliperidone (PMID

Cc1c(N(C)CS(=O)(=O)[O-])c(=O)n(-c2ccccc2)n1C.[Na+] [dipyrone]
agranulocytosis (HLA genotypes; HLA-A24, B7, DQwI): associated

COc1ccc(C(CN(C)C)C2(O)CCCCC2)cc1 (stereo not drawn) [Venlafaxine]
risk of adverse effects (CYP2D6; [2]): 10233212, 10877013), which may increase risk of adverse effects (PMID 17803873). Consider alternative medications,
levels of the active metabolite, O-desmethylvenlafaxine, at standard doses (CYP2D6; CYP2D6 Poor Metabolizer): decreased
risk of adverse effects (CYP2D6; CYP2D6 Poor Metabolizer): 18214456, 19593180, 21288052); therefore, the patient may have an increased risk of adverse effects at standard
plasma levels of the active metabolite, O-desmethylvenlafaxine, at standard doses (CYP2D6; CYP2D6 Ultrarapid Metabolizer): Patient's genotype is associated with increased plasma levels of the active metabolite, O-desmethylvenlafaxine, and

CC(=O)/N=c1/sc(S(N)(=O)=O)nn1C [methazolamide]
SJS (HLA genotypes; HLA-B59): associated

OCCOCCN1CCN(C2=Nc3ccccc3Sc3ccccc32)CC1 [Quetiapine]
risk of weight gain (HTR2C): Patient has decreased risk of weight gain if treated with atypical antipsychotics, including quetiapine (PMID 19636338,

CNCCC(Oc1ccc(C(F)(F)F)cc1)c1ccccc1 (stereo not drawn) [Fluoxetine]
depression improvement (Category) (genes affecting efficacy): Depression may improve

NNc1nncc2ccccc12 [hydralazine]
SLE (HLA genotypes; HLA-DR4): associated

CN(C)CCC=C1c2ccccc2CCc2ccccc21 [Amitriptyline]
plasma concentrations (drug, or drug combined with its active metabolite) (CYP2D6; [2]): may have increased
risk of adverse effects (CYP2D6; [2]): increased risk
plasma concentrations (drug, or drug combined with its active metabolite) (CYP2D6; CYP2D6 Poor Metabolizer): increased plasma
risk of adverse effects (CYP2D6; CYP2D6 Poor Metabolizer): increased risk

Fc1ccc([C@@H]2CCNC[C@H]2COc2ccc3c(c2)OCO3)cc1 [Paroxetine]
risk of adverse effects (CYP2D6; [2]): paroxetine, which may increase risk of sexual dysfunction (PMID 8880055, 12870705, 1531950).
risk of adverse effects (CYP2D6; CYP2D6 Poor Metabolizer): Patient may have increased risk of drug-drug interactions [PMID 16476833] and sexual dysfunction [PMID 12870705].

CC(CN(C)C)CN1c2ccccc2CCc2ccccc21 (stereo not drawn) [Trimipramine]
plasma concentrations (drug, or drug combined with its active metabolite) (CYP2D6; [2]): Patient's genotype is associated with increased plasma concentrations of trimipramine and desmethyltrimipramine
plasma concentrations (drug, or drug combined with its active metabolite) (CYP2D6; CYP2D6 Poor Metabolizer): Patient's genotype is associated with increased plasma concentrations of trimipramine and desmethyltrimipramine
risk of adverse effects (CYP2D6; CYP2D6 Poor Metabolizer): patient may be at increased risk of adverse effects, such as sedation (PMID 14646691).
plasma concentrations (drug, or drug combined with its active metabolite) (CYP2D6; CYP2D6 Ultrarapid Metabolizer): decreased
risk of therapeutic failure (CYP2D6; CYP2D6 Ultrarapid Metabolizer): increased risk

OCCN1CCN(CCCN2c3ccccc3Sc3ccc(Cl)cc32)CC1 [Perphenazine]
plasma concentrations (drug, or drug combined with its active metabolite) (CYP2D6; [2]): Patient's genotype is associated with increased plasma concentrations of perphenazine (PMID 17429316, 8612387),
plasma concentrations (drug, or drug combined with its active metabolite) (CYP2D6; CYP2D6 Poor Metabolizer): Patient's genotype is associated with increased plasma concentrations of perphenazine (PMID 17429316, 8612387,
risk of adverse effects (CYP2D6; CYP2D6 Poor Metabolizer): 8689810), which may increase risk of adverse effects (FDA approved perphenazine drug label, PMID 9333110,
plasma concentrations (drug, or drug combined with its active metabolite) (CYP2D6; CYP2D6 Ultrarapid Metabolizer): Patient's genotype is associated with decreased plasma concentrations of perphenazine.

CN(C)CCC=C1c2ccccc2COc2ccccc21 [Doxepin]
plasma concentrations (drug, or drug combined with its active metabolite) (CYP2D6; [2]): may have increased
risk of adverse effects (CYP2D6; [2]): may increase the risk
plasma concentrations (drug, or drug combined with its active metabolite) (CYP2D6; CYP2D6 Poor Metabolizer): increased
risk of adverse effects (CYP2D6; CYP2D6 Poor Metabolizer): may increase the risk
plasma concentrations (drug, or drug combined with its active metabolite) (CYP2D6; CYP2D6 Ultrarapid Metabolizer): Patient's genotype is associated with decreased plasma concentrations of doxepin. Consider alternative medications,

Cc1cc2c(s1)Nc1ccccc1N=C2N1CCN(C)CC1 [Olanzapine]
Olanzapine, weight gain (Category) ([1]; ADRB3 rs4994, ADRB3:Trp64Arg): Less likely to gain weight
Olanzapine, weight gain (Category) ([1]; GNB3 rs5443, GNB3:825C > T): More likely to gain weight
Olanzapine, weight gain (Category) ([1]; HTR2A rs6313, HTR2A:T102C): More likely to gain weight
Olanzapine, weight gain (Category) ([1]; HTR2C rs6318, HTR2C:Cys23Ser): More likely to gain weight
Olanzapine, weight gain (Category) ([1]; HTR2C rs518147, HTR2C: −697G/C): Less likely to gain weight

OCCN1CCN(CC/C=C2/c3ccccc3Sc3ccc(Cl)cc32)CC1 [Zuclopenthixol]
plasma concentrations (drug, or drug combined with its active metabolite) (CYP2D6; [2]): Patient may have increased plasma concentrations of zuclopenthixol (PMID 1927573, 8946657, 12107620, 8612387,
risk of adverse effects (CYP2D6; [2]): 20946203), which may increase risk of adverse effects (PMID 20175668, 12107620). Consider reducing the dose by
plasma concentrations (drug, or drug combined with its active metabolite) (CYP2D6; CYP2D6 Poor Metabolizer): Patient's genotype is associated with increased plasma concentrations of zuclopenthixol (PMID 1927573, 8946657,
risk of adverse effects (CYP2D6; CYP2D6 Poor Metabolizer): 12107620, 8612387, 20946203), which may increase risk of adverse effects (PMID 20175668, 12107620). Consider

Nc1nc(NC2CC2)c2ncn([C@H]3C=C[C@@H](CO)C3)c2n1 [abacavir]
hypersensitivity (HLA genotypes; HLA-B*5701): associated

Oc1ncnc2[nH]ncc12 [allopurinol]
drug eruption (HLA genotypes; HLA-Aw33, B17/Bw58): associated
severe cutaneous adverse reactions (HLA genotypes; HLA-B*5801): associated

CN1CCN2c3ncccc3Cc3ccccc3C2C1 (stereo not drawn) [Mirtazapine]
plasma concentrations (drug, or drug combined with its active metabolite) (CYP2D6; [2]): Patient may have increased plasma concentrations of mirtazapine, though it is unclear if increased plasma
plasma concentrations (drug, or drug combined with its active metabolite) (CYP2D6; CYP2D6 Poor Metabolizer): Patient may have increased plasma concentrations of mirtazapine at standard doses, though it is unclear if increased

CNCC[C@H](Oc1cccc2ccccc12)c1cccs1 [Duloxetine]
plasma concentrations (drug, or drug combined with its active metabolite) (CYP2D6; [2]): Patient may have increased plasma concentrations of duloxetine at standard doses (PMID 17380590, 17713974).
plasma concentrations (drug, or drug combined with its active metabolite) (CYP2D6; CYP2D6 Poor Metabolizer): Patient may have increased plasma concentrations of duloxetine at standard doses (PMID 17380590, 17713974).

c1ccc([C@H]2CN3CCSC3=N2)cc1 [levamisole]
agranulocytosis (HLA genotypes; HLA-B27): associated
